# According to the supplement of paper PMC11061612:
# Tests used:
# Test in all cases: Bliss excess, mean over the matrix (fraction); higher = more synergy
# [1] = test system: OS-RC-2 (Kidney Carcinoma)
# Summary of the method: (§1)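 Cell lines in DMEM/F12 or RPMI with 10% FBS were plated in 1536-well plates, held 24 hours at 37°C, 5% CO2, then given two-drug dose matrices for 72 hours (DMSO typically 0.2%). Viability was read by CellTiter-Glo 2.0 luminescence and scaled as inhibition from 0 (vehicle wells) to 1 (blank wells). Combination Emax is the second-highest inhibition in the matrix; Bliss excess is observed combination effect minus expected EA + EB − EA·EB, EA and EB being single-agent effects.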
# [2] = test system: COLO-824 (Breast Carcinoma)
# Summary of the method: as §1
# [3] = test system: KARPAS-422 (B-Cell Non-Hodgkin's Lymphoma)
# Summary of the method: as §1
# [4] = test system: PANC-10-05 (Pancreatic Carcinoma)
# Summary of the method: as §1
# NCI-H2591 (Mesothelioma) = test system: NCI-H2591 (Mesothelioma)
# Summary of the method: as §1
# [5] = test system: NCI-H2066 (Squamous Cell Lung Carcinoma)
# Summary of the method: as §1
# FU97 (Gastric Carcinoma) = test system: FU97 (Gastric Carcinoma)
# Summary of the method: as §1
# [6] = test system: MDST8 (Colorectal Carcinoma)
# Summary of the method: as §1
# [7] = test system: TT2609-C02 (Thyroid Gland Carcinoma)
# Summary of the method: as §1
# 8-MG-BA (Glioblastoma) = test system: 8-MG-BA (Glioblastoma)
# Summary of the method: as §1
# IGR-37 (Melanoma) = test system: IGR-37 (Melanoma)
# Summary of the method: as §1
# [8] = test system: NCI-H2141 (Small Cell Lung Carcinoma)
# Summary of the method: as §1
# [9] = test system: HCC1954 (Breast Carcinoma)
# Summary of the method: as §1
# [10] = test system: CAPAN-2 (Pancreatic Carcinoma)
# Summary of the method: as §1
# [11] = test system: ONS-76 (Other Solid Carcinomas)
# Summary of the method: as §1
# [12] = test system: SISO (Cervical Carcinoma)
# Summary of the method: as §1
# [13] = test system: JSC-1 (B-Cell Non-Hodgkin's Lymphoma)
# Summary of the method: as §1
# [14] = test system: NCI-H1693 (Lung Adenocarcinoma)
# Summary of the method: as §1
# GI-ME-N (Neuroblastoma) = test system: GI-ME-N (Neuroblastoma)
# Summary of the method: as §1
# Hs-445 (Non-Cancerous) = test system: Hs-445 (Non-Cancerous)
# Summary of the method: as §1
Structure (SMILES),Bliss excess [1],Bliss excess [2],Bliss excess [3],Bliss excess [4],Bliss excess (NCI-H2591 (Mesothelioma)),Bliss excess [5],Bliss excess (FU97 (Gastric Carcinoma)),Bliss excess [6],Bliss excess [7],Bliss excess (8-MG-BA (Glioblastoma)),Bliss excess (IGR-37 (Melanoma)),Bliss excess [8],Bliss excess [9],Bliss excess [10],Bliss excess [11],Bliss excess [12],Bliss excess [13],Bliss excess [14],Bliss excess (GI-ME-N (Neuroblastoma)),Bliss excess (Hs-445 (Non-Cancerous))
"CN(CCO)CC[C@H](CSc1ccccc1)Nc1ccc(S(=O)(=O)NC(=O)c2ccc(N3CCC([C@@H](O)c4ccccc4-c4ccc(Cl)cc4)CC3)cc2)cc1S(=O)(=O)C(F)(F)F [AZD4320] + CCN(CCO)CCCOc1ccc2c(Nc3cc(CC(=O)Nc4cccc(F)c4)[nH]n3)ncnc2c1 [AZD2811] (first compound max 1 µM, 7x7, partner max 1 µM)",-0.0659,0.0272,0.14,-0.0758,0.0015,-0.0391,-0.0531,0.0868,0.0411,0.003,-0.0204,0.0443,0.149,0.0013,0.0817,0.0049,0.0215,-0.003,-0.057,0.175
"CN(CCO)CC[C@H](CSc1ccccc1)Nc1ccc(S(=O)(=O)NC(=O)c2ccc(N3CCC([C@@H](O)c4ccccc4-c4ccc(Cl)cc4)CC3)cc2)cc1S(=O)(=O)C(F)(F)F [AZD4320] + CN(C)CCCOc1ccc(-c2ccc3ncc4c(c3c2)n(C2CCOCC2)c(=O)n4C)cn1 [AZD0156] (first compound max 1 µM, 7x7, partner max 1 µM)",-0.0706,0.0031,0.0093,-0.0489,-0.0508,-0.092,-0.0303,-0.0419,-0.0325,-0.0146,-0.0148,-0.0151,0.0526,-0.033,-0.0494,-0.0343,-0.0076,-0.0226,-0.0454,-0.0732
"CN(CCO)CC[C@H](CSc1ccccc1)Nc1ccc(S(=O)(=O)NC(=O)c2ccc(N3CCC([C@@H](O)c4ccccc4-c4ccc(Cl)cc4)CC3)cc2)cc1S(=O)(=O)C(F)(F)F [AZD4320] + C[C@@H](Nc1cc(F)cc(F)c1)c1cc(C(=O)N(C)C)cc2c(=O)cc(N3CCOCC3)oc12 [AZD8186] (first compound max 1 µM, 7x7, partner max 3 µM)",-0.0197,0.0422,0.0234,-0.073,0.0135,-0.0671,0.0471,0.025,0.0003,-0.0301,0.029,0.0326,0.0622,-0.0099,0.0221,0.0326,0.0639,0.0468,0.0272,0.0667
"CN(CCO)CC[C@H](CSc1ccccc1)Nc1ccc(S(=O)(=O)NC(=O)c2ccc(N3CCC([C@@H](O)c4ccccc4-c4ccc(Cl)cc4)CC3)cc2)cc1S(=O)(=O)C(F)(F)F [AZD4320] + Cc1cc2ncnn2cc1Nc1ncc2c(n1)n(C1CCOCC1)c(=O)n2C [AZD7648] (first compound max 1 µM, 7x7, partner max 10 µM)",-0.0524,0.006,-0.0071,-0.0652,-0.0445,0.0299,-0.0375,-0.0283,-0.0367,-0.0188,-0.0132,0.0109,0.028,-0.0217,-0.0301,-0.0328,-0.0113,-0.0639,-0.0775,0.0079
"CN(CCO)CC[C@H](CSc1ccccc1)Nc1ccc(S(=O)(=O)NC(=O)c2ccc(N3CCC([C@@H](O)c4ccccc4-c4ccc(Cl)cc4)CC3)cc2)cc1S(=O)(=O)C(F)(F)F [AZD4320] + Cn1cnc2c(F)c(Nc3ccc(Br)cc3Cl)c(C(=O)NOCCO)cc21 [Selumetinib] (first compound max 1 µM, 7x7, partner max 3 µM)",0.0178,-0.0523,-0.0387,0.0065,0.0309,0.0432,-0.011,0.0763,-0.0046,0.0614,-0.0039,-0.008,0.0665,0.0819,0.019,0.0504,0.0044,0.0031,0.0196,0.0606
"COc1nnc2ccc(N3CCC(c4ccc(OCCN5CCN(C)C(=O)[C@H]5C)cc4)CC3)nn12 [AZD5153] + C=CCn1c(=O)c2cnc(Nc3ccc(N4CCN(C)CC4)cc3)nc2n1-c1cccc(C(C)(C)O)n1 [AZD1775] (first compound max 1 µM, partner max 1 µM)",-0.0324,-0.0551,-0.108,-0.132,0.0145,-0.0503,0.0072,-0.0455,-0.0508,-0.0571,-0.0569,-0.021,-0.0383,-0.0202,-0.0505,-0.0346,-0.123,-0.0888,-0.0231,-0.192
"COc1nnc2ccc(N3CCC(c4ccc(OCCN5CCN(C)C(=O)[C@H]5C)cc4)CC3)nn12 [AZD5153] + CC1(C)CCC(CN2CCN(c3ccc(C(=O)NS(=O)(=O)c4ccc(NCC5CCOCC5)c([N+](=O)[O-])c4)c(Oc4cnc5[nH]ccc5c4)c3)CC2)=C(c2ccc(Cl)cc2)C1 [Venetoclax] (first compound max 1 µM, 7x7, partner max 1 µM)",-0.0584,-0.0176,-0.032,-0.119,-0.0688,-0.0919,-0.0452,-0.0566,-0.106,-0.0116,-0.0171,0.0085,-0.0391,-0.0149,-0.0428,-0.0335,-0.0724,-0.0464,-0.0955,0.0178
